Data reported in US20150164117A1, “ENCAPSULATION OF FRAGRANCE AND/OR FLAVORS IN SILK FIBROIN BIOMATERIALS” (Tufts University, priority 2012, published 2015).
Where “and” joins values, the source holds several entries; their conditions need not be identical. Equal entries are not always repeated. Each block holds one compound with its values, some of them ahead of it.

Assays:
[1] = format: physicochemical
Procedure: To determine fragrance content, thermogravimetric analysis (TGA) was performed on fragrance-loaded sill microparticles. Samples were allowed to air dry for 24 hours prior to analysis. FIGS. 18D-18F depict the results of the TGA for encapsulation of three fragrances, while FIGS. 18A-18C show the individual emulsion components. A small increase in temperature causes the ethanol to volatilize rapidly, while the silk and vegetable oil only begin to degrade at temperatures of 220° C. and 300° C. respectively. The fragrances used are highly volatile and were expected to vaporize well before the silk and oil components. As shown in FIG. 18D-18F, it is difficult to distinguish the fragrance component from the ethanol, they are both released from the microparticles in the same temperature range. To estimate the fragrance content, the change in rate of weight loss during heating from 23° C. to 100° C. was taken as the transition between primarily ethanol evaporation prior to change in rate and fragrances loss subsequently.
To address concerns with release between ethanol and the encapsulated fragrance, a 250 minute incubation at 50° C. was employed during a second set of TGA runs. This incubation was added to ensure that any free surface fragrance and ethanol would vaporize prior to further temperature ramping. After incubation the silk particles contain fragrance only if it was entrapped within the silk.
(§1) Thermogravimetric analysis (TGA) (TA Instruments Q500) was used to measure weight changes in the microparticles. For rapid estimates of microparticle composition the TGA was heated from 23° C. to 500° C. at a rate of ˜20° C./min. To distinguish surface fragrance from encapsulated fragrance, samples were run with a ˜250 minute incubation at 50° C. prior to continued heating. For analysis of fragrance protection the TGA was held isothermal for 30 minutes every 20° C. interval from 70° C. up to 210° C. For each segment weight loss was monitored and attributed to fragrance release from the microparticles.

[2] = cited from earlier work
[3] = Size of fragrance-loaded silk microparticles from silk/fragrance emulsions; format: physicochemical; settings: n = 3
Procedure: To determine the effectiveness of encapsulation of a silk based oil-water-oil system, fragrance oils targeted for encapsulation were added to the silk/polyvinyl alcohol (PVA) aqueous phase at ratios ranging from 1:2 up to 1:8 (v:v). The ratio of silk to fragrance oils was altered prior to sonication and addition of secondary oil phase. […] Formation of fragrance-loaded silk microparticles was more challenging at ˜1% silk concentrations for any of the fragrances tested.
The water phase was created by combining 5:1 (v:v) silk fibroin solution with 3% (w/v) PVA solution. The oil fragrance targeted for encapsulation was manually added to an aqueous phase. The stable primary O/W emulsion was sonicated (20% for 20 seconds) to disperse the oil, reduce the diameter of the oil particles and initiate β-sheet formation. The vegetable oil (sunflower oil) was added as the secondary oil phase at a 10:1 volumetric ratio with respect to the primary emulsion. The O/W/O emulsion was vortexed at high speed for 30 seconds and incubated overnight at room temperature. The microparticles were collected via centrifugation, and excess oil was removed by two successive ethanol rinses. The isolated particles were resuspended in deionized water and stored at room temperature.

[4] = Dissolution of untreated loaded silk films and release of load in aqueous medium; format: physicochemical
Procedure: Rapid dissolution of films loaded with a dye and release of the dye from the films occur when the films are immersed in ˜37° C. buffer (FIG. 10). Dissolvable silk films loaded with an odor-releasing substance and/or flavoring substance (e.g., ˜0.5, 0.25 or 0.125 mg of adenosine per 0.2 mm^2 film) released the majority of the drug load (approx. 80%) within 15 minutes of exposure to 37° C. phosphate buffered saline (PBS) (Data not shown).

[5] = Limonene release in water from limonene/silk/PVA microparticles (TGA after soaking); format: physicochemical
Procedure: FIGS. 22A-22B are data graphs showing retention/release of fragrance from the fragrance-encapsulated silk microparticles under a specified condition. The microparticles were then diluted in water and passed through 120 μm filter. The isolated microparticles were then incubated in water to determine fragrance release over time. FIG. 22A is a data graph of TGA (performed with ˜250 min 50° C. incubation, followed by ramping to 400° C. at 5° C./min) showing weight loss of fragrance-encapsulated silk microparticles over a period of time when subjected to various temperatures. […] These silk microparticles show retention across 14 days without any additional coatings. FIG. 22B is a bar graph showing percents of encapsulated limonene release in water from O/W/O PVA silk microparticles without coatings. Using the “no release” as the reference point for fragrance content, there was about 2-3% difference in mass for fragrance-encapsulated silk microparticles soaked in water. Mass loss corresponds to fragrance loss during soaking in an aqueous environment, with an increase of fragrance release after longer exposure to the aqueous environment.

[6] = Interfacial tension between silk solution and limonene (pendant drop); format: physicochemical
Procedure: To elucidate the interaction of silk and the fragrance oils the interfacial tension was measured. Interfacial tension between the two liquids dictates emulsion stability and ultimately microparticle size and distribution (Terjung et al., 2012). Various silk concentrations were assessed along with three silk molecular weight ranges: low, medium and high based on degumming times of ˜60, ˜30 and ˜10 minutes respectively. […] Interfacial tension drops when the molecular weight of the silk protein is decreased. This is in agreement with other studies that show a dependence of surface tension on molecular weight and molecular chain branching (Dettre et al., 1966 and Legrand et al., 1969). […] The highest interfacial tension was 8.16+/−0.57 mN/m for the […] molecular weight silk at a concentration of about 2%. […] Hung et al. discussed that an increase in the concentration of short chain molecules can correspond to a decrease in interfacial tension in an aqueous system (Ly et al. 2004). This is a behavior indicative of emulsifiers, which traditionally serve to stabilize mixtures and generally show better stability with increase in concentration (Djakovic et al., 1987).
Interfacial tension measurements were made using a Ramé-Hart Goniometer (Model 200) running DROPimage Standard analysis software. A silk solution drop of known volume was suspended on the tip of a needle which was submerged in the fragrant oil creating a pendent drop. The DROPimage software used the pendant drop image as well as known density values to calculate interfacial tension at the liquid-liquid interface.

[7] = TGA with stepwise isothermal segments, fragrance protection by PEO/silk coatings; format: physicochemical; settings: limonene containing microparticles
Text: It has been previously discussed that hydrated barriers can alter the rate of compound release from aqueous silk, hyaluronic acid, gelatin, and alginate constructs (Guziewicz et al., 2011; Elia et al., 2011; Omi et al., 1991; Sriamornsak et al., 2007; Chan et al., 2007; and Li et al., 2006). In combination with the hydrophobic nature of the fragrances, a protective barrier designed to maintain moisture can be desired. The coating scheme is illustrated in FIG. 27A. Each coating comprises a polyethylene oxide (PEO) layer surrounded by a silk fibroin film. Particles were coated with one, three or five coatings and a modified TGA was performed to assess fragrance retention. […] FIGS. 27B-27D depict scanning electron micrographs of these particles.
as §1

[8] = silk concentration ~5%, fragrance:silk ~1:2
[9] = silk concentration ~3%, fragrance:silk ~1:2

Compound: C=CC(C)CCCC(C)(C)O (centres unmarked) [Dihydromyrcenol]
Log P [2]: 3.25
Microparticle size [3, 8]: 7.71 ± 1.82 μm

Compound: C/C=C/C(=O)C1C(C)C=CCC1(C)C (centres unmarked) [Delta-Damascone]
Log P [2]: 3.91
Microparticle size [3, 9]: 7.60 ± 2.71 μm
Microparticle size [3, 8]: 7.84 ± 1.49 μm

Compound: C=C(C)C1CC=C(C)CC1 (centres unmarked) [Limonene]
Difference in mass versus no release (fragrance loss on soaking in water) ([5]; uncoated limonene/silk/PVA O/W/O microparticles soaked in water, TGA): 2-3%
Retention in water without additional coatings ([5]; uncoated limonene/silk/PVA microparticles incubated in water): 14 days
Microparticle size [3, 9]: 9.57 ± 2.70 μm
Microparticle size ([3]; silk concentration ~3%, fragrance:silk ~1:2, listed as limonene): 9.57+/−2.70 μm
Microparticle size [3, 8]: 12.40 ± 4.76 μm
Microparticle size ([3]; silk concentration ~5%, fragrance:silk ~1:2, listed as limonene): 12.40+/−4.96 μm
Interfacial tension ([6]; between silk and limonene, lowest molecular weight and highest silk concentrations): 4.59+/−0.32 mN/m
Interfacial tension ([6]; between silk and limonene, lowest molecular weight silk at about 2% (highest value found)): 8.16+/−0.57 mN/m
Interfacial tension ([6]; limonene / 6% silk at 3.1 uM NaCl): 1.82+/−0.39 mN/m
Interfacial tension ([6]; limonene / unaltered 6% silk (30 minute degummed), n=3): 4.78+/−0.28 mN/m
Loss of limonene during incubation period ([1]; O/W/O microparticles, TGA with 250 minute incubation at 50° C.): majority of the limonene is lost
Limonene fraction of microparticles ([1]; preformed PVA/silk microparticles soaked about 1 or about 24 hours in limonene oil, TGA): 85-90%
Weight Loss (%), Total Loss ([7]; 1 PEO/silk coating, 70-210° C. segments): 8.2%
Weight Loss (%) ([7]; 1 PEO/silk coating, isotherm segment 70° C.): 0.179%
Weight Loss (%) ([7]; 1 PEO/silk coating, isotherm segment 90° C.): 1.024%
Weight Loss (%) ([7]; 1 PEO/silk coating, isotherm segment 110° C.): 0.154%
Weight Loss (%) ([7]; 1 PEO/silk coating, isotherm segment 130° C.): 0.342%
Weight Loss (%) ([7]; 1 PEO/silk coating, isotherm segment 150° C.): 0.323%
Weight Loss (%) ([7]; 1 PEO/silk coating, isotherm segment 170° C.): 0.367%
Weight Loss (%) ([7]; 1 PEO/silk coating, isotherm segment 190° C.): 2.465%
Weight Loss (%) ([7]; 1 PEO/silk coating, isotherm segment 210° C.): 3.3201%
Weight Loss (%), Total Loss ([7]; 3 PEO/silk coatings, 70-210° C. segments): 1.2%
Weight Loss (%) ([7]; 3 PEO/silk coatings, isotherm segment 70° C.): 0.035%
Weight Loss (%) ([7]; 3 PEO/silk coatings, isotherm segment 90° C.): −0.019%
Weight Loss (%) ([7]; 3 PEO/silk coatings, isotherm segment 110° C.): 0.091%
Weight Loss (%) ([7]; 3 PEO/silk coatings, isotherm segment 130° C.): −0.102%
Weight Loss (%) ([7]; 3 PEO/silk coatings, isotherm segment 150° C.): 0.056%
Weight Loss (%) ([7]; 3 PEO/silk coatings, isotherm segment 170° C.): 0.288%
Weight Loss (%) ([7]; 3 PEO/silk coatings, isotherm segment 190° C.): 0.328%
Weight Loss (%) ([7]; 3 PEO/silk coatings, isotherm segment 210° C.): 0.478%
Weight Loss (%), Total Loss (fragrance retention) ([7]; 5 PEO/silk coatings, 70-210° C. segments): 16.8%
Weight Loss (%) ([7]; 5 PEO/silk coatings, isotherm segment 70° C.): 1.535%
Weight Loss (%) ([7]; 5 PEO/silk coatings, isotherm segment 90° C.): 3.531%
Weight Loss (%) ([7]; 5 PEO/silk coatings, isotherm segment 110° C.): 3.579%
Weight Loss (%) ([7]; 5 PEO/silk coatings, isotherm segment 130° C.): 2.391%
Weight Loss (%) ([7]; 5 PEO/silk coatings, isotherm segment 150° C.): 1.549%
Weight Loss (%) ([7]; 5 PEO/silk coatings, isotherm segment 170° C.): 1.314%
Weight Loss (%) ([7]; 5 PEO/silk coatings, isotherm segment 190° C.): 1.278%
Weight Loss (%) ([7]; 5 PEO/silk coatings, isotherm segment 210° C.): 1.615%

Compound: CCCC(C)C(=O)OCC (centres unmarked) [Applinate]
Log P [2]: 2.76
Microparticle size ([3]; silk concentration 3%, fragrance:silk ~1:4): 9.53 ± 2.47 μm
Microparticle size ([3]; silk concentration 3%, fragrance:silk ~1:8): 9.22 ± 2.79 μm
Microparticle size ([3]; silk concentration 5%, fragrance:silk ~1:4): 9.64 ± 3.11 μm
Microparticle size ([3]; silk concentration 5%, fragrance:silk ~1:8): 9.61 ± 2.40 μm
Microparticle size [3, 9]: 8.49 ± 2.53 μm
Microparticle size ([3]; silk concentration ~3%, fragrance:silk ~1:2, listed as applinate): 8.49+/−2.53 μm and 8.49 ± 2.53 μm
Microparticle size [3, 8]: 8.11 ± 1.96 μm
Microparticle size ([3]; silk concentration ~5%, fragrance:silk ~1:2, listed as applinate): 8.11+/−1.76 μm and 8.11 ± 1.96 μm

Now from value to compound:

Temperature at which degradation begins [1]: 300 °C
Compound: vegetable oil

Time to full dissolution ([4]; untreated dye-loaded silk film immersed in ~37° C. water): about 30 minutes
Compound: O=C1/C(=C2\Nc3ccc(S(=O)(=O)[O-])cc3C2=O)Nc2ccc(S(=O)(=O)[O-])cc21.[Na+].[Na+] [indigo carmine]

Drug load released ([4]; dissolvable silk films, ~0.5, 0.25 or 0.125 mg per 0.2 mm^2 film, within 15 minutes in 37° C. PBS, data not shown): approx. 80%
Compound: Nc1ncnc2c1ncn2[C@@H]1O[C@H](CO)[C@@H](O)[C@H]1O [adenosine]
